Data reported in ChEMBL document CHEMBL4406890, “Discovery of a novel bicyclic compound, DS54360155, as an orally potent analgesic without mu-opioid receptor agonist activity” (Bioorg Med Chem Lett, 2019).

Assays:
Mu-type opioid receptor [1] = molecular target: T1, Mu-type opioid receptor (Homo sapiens, UniProt P35372); experiment: Displacement of [3H]-diprenorphin from human mu opioid receptor incubated for 1 hr; type: ADME
[2] = 1-Octanol/phosphate buffered-saline distribution coefficient, logD of compound at pH 7.4; type: physicochemical
Mus musculus [3] = experiment: Analgesic activity in ddY mouse assessed as reduction in total time spent in paw licking and biting during initial phase at 30 mg/kg, po pretreated for 30 mins followed by formalin challenge and measured for 15 mins post formalin challenge by formalin test relative to control; type: functional
[4] = Metabolic stability in CD1 mouse liver microsomes assessed as parent compound remaining incubated for 0.5 hrs in presence of beta-NADP by LC-MS/MS analysis; type: ADME, Microsome; settings: read-out: Stability
[5] = Cmax in ddY mouse at 10 mg/kg, po measured after 3 mins by LC-MS/MS analysis; type: ADME, organism-based; design: dose 10 mg/kg, route oral; settings: in vivo
Mu-type opioid receptor [6] = molecular target: T1, Mu-type opioid receptor; experiment: Agonist activity at human mu opioid receptor expressed in CHOK1 cells assessed as inhibition of forskolin-induced cAMP production by FRET assay; type: cell-based
Mus musculus [7] = experiment: Analgesic activity in oral dosed ddY mouse model of acetic acid-induced writhing pretreated for 30 mins followed by acetic acid challenge and measured for 25 mins; type: functional
Mu-type opioid receptor [8] = molecular target: T1, Mu-type opioid receptor; experiment: Agonist activity at human mu opioid receptor expressed in CHOK1 cells assessed as inhibition of forskolin-induced cAMP production by FRET assay relative to DAMGO; type: cell-based
[9] = AUC in ddY mouse at 10 mg/kg, po measured after 3 mins by LC-MS/MS analysis; type: ADME, organism-based; design: time < 0.05 hr, dose 10 mg/kg, route oral; settings: in vivo
Mus musculus [10] = experiment: Analgesic activity in ddY mouse model of acetic acid-induced writhing assessed as inhibition of writhing numbers at 3 mg/kg, po pretreated for 30 mins followed by acetic acid challenge and measured for 25 mins relative to control; type: functional
[11] = Volume of distribution in ddY mouse at 1 mg/kg, iv measured after 3 mins by LC-MS/MS analysis; type: ADME, organism-based; settings: in vivo
[12] = Half-life in ddY mouse at 10 mg/kg, po measured after 3 mins by LC-MS/MS analysis; type: ADME, organism-based; settings: in vivo
hERG (KCNH2) = hERG (KCNH2) (Homo sapiens, UniProt Q12809); experiment: Inhibition of human ERG at 10 uM relative to control
[13] = Clearance in ddY mouse at 1 mg/kg, iv measured after 3 mins by LC-MS/MS analysis; type: ADME, organism-based; settings: in vivo
Mus musculus [14] = experiment: Analgesic activity in ddY mouse model of acetic acid-induced writhing assessed as inhibition of writhing numbers at 10 mg/kg, po pretreated for 30 mins followed by acetic acid challenge and measured for 25 mins relative to control; type: functional
Mus musculus [15] = experiment: Analgesic activity in ddY mouse model of acetic acid-induced writhing assessed as inhibition of writhing numbers at 30 mg/kg, po pretreated for 30 mins followed by acetic acid challenge and measured for 25 mins relative to control; type: functional

T1 sequence (P35372 whole entry): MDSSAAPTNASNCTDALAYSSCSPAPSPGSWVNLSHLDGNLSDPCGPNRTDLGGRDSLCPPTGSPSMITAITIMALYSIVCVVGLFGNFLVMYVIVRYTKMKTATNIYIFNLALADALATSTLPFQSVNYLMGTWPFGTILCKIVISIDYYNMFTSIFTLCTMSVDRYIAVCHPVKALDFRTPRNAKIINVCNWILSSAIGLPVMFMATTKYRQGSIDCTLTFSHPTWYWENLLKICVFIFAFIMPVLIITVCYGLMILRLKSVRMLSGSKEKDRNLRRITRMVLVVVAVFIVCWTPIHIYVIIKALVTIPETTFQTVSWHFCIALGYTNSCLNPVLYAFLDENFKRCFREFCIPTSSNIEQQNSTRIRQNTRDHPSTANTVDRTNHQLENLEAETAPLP
Sequence of hERG (KCNH2) (Q12809 whole entry): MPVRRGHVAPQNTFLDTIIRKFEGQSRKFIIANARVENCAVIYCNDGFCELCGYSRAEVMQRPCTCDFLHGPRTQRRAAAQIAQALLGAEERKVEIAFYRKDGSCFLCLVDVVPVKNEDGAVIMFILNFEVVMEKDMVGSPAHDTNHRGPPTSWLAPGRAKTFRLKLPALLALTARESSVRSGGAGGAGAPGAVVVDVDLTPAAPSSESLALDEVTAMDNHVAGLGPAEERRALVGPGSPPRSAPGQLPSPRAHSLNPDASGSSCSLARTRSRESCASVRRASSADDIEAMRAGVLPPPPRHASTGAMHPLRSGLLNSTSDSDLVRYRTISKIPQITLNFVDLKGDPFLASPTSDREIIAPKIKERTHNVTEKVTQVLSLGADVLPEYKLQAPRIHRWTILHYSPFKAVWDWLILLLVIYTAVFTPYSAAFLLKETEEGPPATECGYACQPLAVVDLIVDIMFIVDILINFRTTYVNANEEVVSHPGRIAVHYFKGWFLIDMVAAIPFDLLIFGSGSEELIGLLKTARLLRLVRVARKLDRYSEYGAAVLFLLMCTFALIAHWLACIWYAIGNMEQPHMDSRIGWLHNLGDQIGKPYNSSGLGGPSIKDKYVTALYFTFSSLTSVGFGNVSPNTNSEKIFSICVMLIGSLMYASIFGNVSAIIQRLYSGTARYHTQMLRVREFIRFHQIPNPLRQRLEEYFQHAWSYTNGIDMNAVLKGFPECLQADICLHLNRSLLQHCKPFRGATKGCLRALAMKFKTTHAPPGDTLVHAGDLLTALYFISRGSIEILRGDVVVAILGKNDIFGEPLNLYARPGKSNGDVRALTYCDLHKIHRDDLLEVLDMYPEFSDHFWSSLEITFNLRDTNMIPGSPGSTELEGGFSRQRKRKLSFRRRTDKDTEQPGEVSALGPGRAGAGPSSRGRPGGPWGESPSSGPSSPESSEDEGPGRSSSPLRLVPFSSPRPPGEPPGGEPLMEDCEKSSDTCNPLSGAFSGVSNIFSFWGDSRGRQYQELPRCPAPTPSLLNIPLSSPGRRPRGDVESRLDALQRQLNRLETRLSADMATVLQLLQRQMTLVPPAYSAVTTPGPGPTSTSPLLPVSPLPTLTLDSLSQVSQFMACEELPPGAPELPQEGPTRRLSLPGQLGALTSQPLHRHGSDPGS

SMILES | IC50 (Mu-type opioid receptor [1]) [µM] | logD [2] | inhibition in vivo at 30 mg/kg (Mus musculus [3]) [%] | remaining at 0.5 h [4] [%] | Cmax [5] [nM] | EC50 (Mu-type opioid receptor [6]) [µM] | ED50 (Mus musculus [7]) [mg/kg] | Emax (Mu-type opioid receptor [8]) [%] | AUC at 0.05 h [9] [µM·h] | inhibition in vivo at 3 mg/kg (Mus musculus [10]) [%] | Vd [11] [L/kg] | half-life [12] [h] | inhibition at 10 µM (hERG (KCNH2)) [%] | clearance [13] [mL/min/kg] | inhibition in vivo at 10 mg/kg (Mus musculus [14]) [%] | inhibition in vivo at 30 mg/kg (Mus musculus [15]) [%]
CN1C(=O)c2[nH]c3ccccc3c2CN2CC[C@H]1C2.O=S(=O)(O)O | > 100 | 0.7 | 83 | 99 | 2150 | > 100 | 12 | 19 | 5.8 | 19 | 1.72 | 2.27 | 14 | 24.9 | 23 | 95
CCN1C(=O)c2[nH]c3ccccc3c2CN2CCC1C2 (racemic) |  | 1.1 |  | 91 |  |  |  |  |  |  |  |  | 14 |  |  | 43
CN1C(=O)c2[nH]c3ccccc3c2CN2CCC[C@H]1C2 |  | 1 |  | 74 | 720 |  | 23 |  | 1.59 |  |  | 2.18 | 38 |  |  | 77
CC12CCCN(CC1)Cc1c([nH]c3ccccc13)C2=O (racemic) |  | 1.5 |  | 91 |  |  |  |  |  |  |  |  | 88 |  |  | 21
CCCN1C(=O)c2[nH]c3ccccc3c2CN2CCC1C2 (racemic) |  | 1.6 |  | 72 |  |  |  |  |  |  |  |  | 43 |  |  | 44
O=C1c2[nH]c3ccccc3c2CN2CCC3(CCCN13)C2 (racemic) |  | 1.2 |  | 82 |  |  |  |  |  |  |  |  | 13 |  |  | 47
O=C1c2[nH]c3ccccc3c2CN2CCC(C2)N1C1CC1 (racemic) |  | 1.1 |  | 92 |  |  |  |  |  |  |  |  | 19 |  |  | 55
C/C=C1/CN2CC[C@H]1C(=O)c1[nH]c3ccccc3c1C2.O=S(=O)(O)O |  |  | 43 | 34 |  | > 100 | 32 |  |  |  |  |  | 63 |  |  | 49
CCN1CCCC(=O)c2[nH]c3ccccc3c2C1 |  | 1.3 |  | 49 |  |  |  |  |  |  |  |  | 73 |  |  | 36
CN1C(=O)c2[nH]c3ccccc3c2CN2CCC1(C)C2 (racemic) |  | 0.7 |  | 93 |  |  |  |  |  |  |  |  | 36 |  |  | 37
CN1C(=O)c2[nH]c3ccccc3c2CN2CCC1C2.O=S(=O)(O)O (racemic) |  | 0.7 |  | > 100 | 1460 |  | 21 |  | 3.29 |  |  | 1.69 | 26 |  |  | 83
CN1C(=O)c2[nH]c3ccccc3c2CN2CC[C@@H]1C2.O=S(=O)(O)O | > 100 | 0.7 | 30 | > 100 | 2990 | > 100 | 27 | 18 | 12.2 |  | 1.14 | 2.52 | 23 | 12.9 |  | 49
CN1C(=O)c2[nH]c3ccccc3c2CN2CCC[C@@H]1C2 |  | 0.9 |  | 82 |  |  |  |  |  |  |  |  |  |  |  | 65
CN1CCCC(=O)c2[nH]c3ccccc3c2C1 |  | 1.1 |  | 53 |  |  |  |  |  |  |  |  | 50 |  |  | 31
